Laboratory results reported in PMC5438368, “Characterization of TRPA channels in the starfish Patiria pectinifera: involvement of thermally activated TRPA1 in thermotaxis in marine planktonic larvae” (Scientific Reports, 2017).

Assays:
PpTRPA1 [1] = target: T1, PpTRPA1 (Patiria pectinifera, UniProt A0A1Y1C7R6); assay: two-electrode voltage clamp, Xenopus laevis oocytes; type: cell-based
T1 construct: cRNA in Xenopus laevis oocytes; no tag told; PCR primers imply N-terminus MEGDE and C-terminus EHDGSNTA
T1 sequence (A0A1Y1C7R6 1-1200): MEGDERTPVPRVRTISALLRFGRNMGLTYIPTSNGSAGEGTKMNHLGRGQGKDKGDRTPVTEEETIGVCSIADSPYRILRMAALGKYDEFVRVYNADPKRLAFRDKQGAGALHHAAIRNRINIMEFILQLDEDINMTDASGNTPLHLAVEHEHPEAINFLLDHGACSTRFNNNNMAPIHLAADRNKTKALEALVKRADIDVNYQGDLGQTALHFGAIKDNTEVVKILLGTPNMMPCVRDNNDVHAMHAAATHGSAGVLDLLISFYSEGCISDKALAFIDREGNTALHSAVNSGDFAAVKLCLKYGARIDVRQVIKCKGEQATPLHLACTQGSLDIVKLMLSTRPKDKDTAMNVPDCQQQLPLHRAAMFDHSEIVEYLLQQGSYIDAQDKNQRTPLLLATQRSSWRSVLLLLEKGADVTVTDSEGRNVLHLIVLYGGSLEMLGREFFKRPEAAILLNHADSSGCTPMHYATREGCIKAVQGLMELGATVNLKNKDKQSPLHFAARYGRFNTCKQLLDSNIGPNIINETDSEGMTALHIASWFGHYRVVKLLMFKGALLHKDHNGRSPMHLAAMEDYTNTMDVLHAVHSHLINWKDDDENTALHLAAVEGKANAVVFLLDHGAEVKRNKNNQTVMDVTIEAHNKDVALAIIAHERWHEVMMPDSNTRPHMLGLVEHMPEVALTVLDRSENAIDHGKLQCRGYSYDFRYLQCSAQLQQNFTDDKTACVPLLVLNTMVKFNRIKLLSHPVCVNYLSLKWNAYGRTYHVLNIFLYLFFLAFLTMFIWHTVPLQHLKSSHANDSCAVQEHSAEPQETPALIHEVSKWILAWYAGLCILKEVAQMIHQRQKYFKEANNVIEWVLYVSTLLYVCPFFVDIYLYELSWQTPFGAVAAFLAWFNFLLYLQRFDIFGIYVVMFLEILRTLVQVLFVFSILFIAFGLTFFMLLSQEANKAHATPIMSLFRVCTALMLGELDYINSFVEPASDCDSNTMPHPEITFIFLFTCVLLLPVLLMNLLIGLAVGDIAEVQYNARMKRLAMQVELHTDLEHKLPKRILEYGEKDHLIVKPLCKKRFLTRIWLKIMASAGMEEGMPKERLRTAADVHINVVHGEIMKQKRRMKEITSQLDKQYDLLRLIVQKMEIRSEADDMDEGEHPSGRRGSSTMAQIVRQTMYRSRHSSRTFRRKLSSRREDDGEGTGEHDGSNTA

PpTRPA1 [2] = target: T1, PpTRPA1; assay: as above; type: cell-based; conditions: agonist; ND96 bath, pH 7.4; -60 mV; n = 3; cinnamaldehyde concentration not in text

SMILES	EC50 (PpTRPA1 [1]) [µM]	two-electrode voltage clamp, Xenopus laevis oocytes (PpTRPA1 [2])
C=CCN=C=S [AITC, allyl isothiocyanate]	117	–
O=CC=Cc1ccccc1 [CA, cinnamaldehyde]	–	Cinnamaldehyde (CA), another TRPA1 agonist, also evoked inward currents in X. laevis oocytes expressing PpTRPA1
